Earlier results, collected in patent US20050070524A1, “Compositions of a cyclooxygenase-2 selective inhibitor and an anticonvulsant agent for the treatment of central nervous system disorders” (Pharmacia Corporation, priority 2003, published 2005).

Tests used:
[1] = system: high-voltage-activated Ca^2+ currents; conditions: rat cortical neurons
[2] = system: high-voltage-activated Ca^2+ channels; conditions: isolated CA1 hippocampal neurons of rats

Row | SMILES | inhibition of high-voltage-activated Ca^2+ currents [1] | inhibition of high-voltage-activated Ca^2+ channels [2]
1 | Nc1nnc(-c2cccc(Cl)c2Cl)c(N)n1 [lamotrigine] | large dose-dependent inhibition | 
2 | CC[C@@H](C(N)=O)N1CCCC1=O [levetiracetam] |  | directly and irreversibly inhibited
